Measured values published in PMC3079779 (Toxicology and applied pharmacology, 2011).
“Also recorded” adds a separate entry of the source. Where two headings read alike, the source gives them in different places.

Tests used:
[1] = molecular target: human KV1.3 voltage gated K+ channel (Homo sapiens, UniProt P22001); assay: KV1.3 thallium influx assay in KV1.3 stably transfected CHO DUKX cells; details: for KV 1.3 IC50 / KV 1.3 Efficacy (inhibition of thallium influx as a % of positive control): thallium influx in KV1.3 cells; for KV 1.3 IC50: mean ± SD from two to three experiments; for Selectivity Fold (hERG over KV1.3): potency difference KV1.3 IC50 / hERG IC50, thallium influx assays; for KV 1.3 Efficacy (inhibition of thallium influx as a % of positive control): relative to 1 μM psoralen
[2] = molecular target: T1, hERG channel (Homo sapiens, UniProt Q12809); assay: FluxOR thallium influx assay in hERG transduced U-2 OS cells; details: for Confirmation Efficacy (inhibition of thallium influx as a % of positive control): confirmation study, hERG transduced cells, mean ± SD of three experiments; for IC50 in the thallium influx assay (QAC series follow-up): quaternary ammonium compound series and digitonin control, hERG cells
[3] = molecular target: T1, hERG channel
[4] = test system: wild type U-2 OS cells; assay: FluxOR thallium influx assay in wild type; format: cell-based, human; details: non-hERG transduced cells
[5] = molecular target: T1, hERG channel; assay: Automated whole cell patch clamp, hERG tail current in hERG CHO-K1 cells
[6] = molecular target: T1, hERG channel; remark: listed apart in the source
[7] = in vitro; format: cell-based, human; details: human, hERG transduced U-2 OS cells
[8] = test system: hERG transduced U-2 OS cells; assay: in vitro; format: cell-based, human; details: for IC50: read-out: Cytotoxicity IC50 (cell viability, intracellular ATP content), up to 92 μM
[9] = molecular target: T2, KV1.3 versus hERG (Homo sapiens, UniProt P22001); assay: KV1.3 thallium influx assay in KV1.3 stably transfected CHO DUKX cells; details: human
[10] = molecular target: T2, KV1.3 versus hERG; assay: in vitro
[11] = automated whole cell patch clamp, hERG tail current, hERG CHO-K1 cells, room temperature
[12] = 30-minute treatment, hERG transduced U-2 OS cells
[13] = read-out: Patch clamp IC50, automated whole cell patch clamp, hERG tail current, hERG CHO-K1 cells, room temperature

human KV1.3 voltage gated K+ channel, sequence (P22001 whole entry): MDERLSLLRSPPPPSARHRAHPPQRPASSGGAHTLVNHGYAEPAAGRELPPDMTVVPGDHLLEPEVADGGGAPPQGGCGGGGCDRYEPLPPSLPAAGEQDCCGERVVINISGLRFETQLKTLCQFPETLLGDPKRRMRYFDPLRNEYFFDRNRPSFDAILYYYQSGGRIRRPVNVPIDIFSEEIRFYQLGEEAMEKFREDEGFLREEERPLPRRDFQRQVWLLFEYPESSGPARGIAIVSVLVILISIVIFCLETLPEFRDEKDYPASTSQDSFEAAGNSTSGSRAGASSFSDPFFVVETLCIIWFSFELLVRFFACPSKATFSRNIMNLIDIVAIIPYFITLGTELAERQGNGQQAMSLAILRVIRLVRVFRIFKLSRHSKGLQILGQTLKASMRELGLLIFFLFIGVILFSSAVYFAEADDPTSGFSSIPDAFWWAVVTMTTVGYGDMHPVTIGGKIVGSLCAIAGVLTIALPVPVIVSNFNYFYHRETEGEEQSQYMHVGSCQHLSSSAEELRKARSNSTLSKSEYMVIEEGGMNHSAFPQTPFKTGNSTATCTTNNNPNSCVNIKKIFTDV
T2 sequence (P22001 whole entry): as above
T1 sequence (Q12809 whole entry): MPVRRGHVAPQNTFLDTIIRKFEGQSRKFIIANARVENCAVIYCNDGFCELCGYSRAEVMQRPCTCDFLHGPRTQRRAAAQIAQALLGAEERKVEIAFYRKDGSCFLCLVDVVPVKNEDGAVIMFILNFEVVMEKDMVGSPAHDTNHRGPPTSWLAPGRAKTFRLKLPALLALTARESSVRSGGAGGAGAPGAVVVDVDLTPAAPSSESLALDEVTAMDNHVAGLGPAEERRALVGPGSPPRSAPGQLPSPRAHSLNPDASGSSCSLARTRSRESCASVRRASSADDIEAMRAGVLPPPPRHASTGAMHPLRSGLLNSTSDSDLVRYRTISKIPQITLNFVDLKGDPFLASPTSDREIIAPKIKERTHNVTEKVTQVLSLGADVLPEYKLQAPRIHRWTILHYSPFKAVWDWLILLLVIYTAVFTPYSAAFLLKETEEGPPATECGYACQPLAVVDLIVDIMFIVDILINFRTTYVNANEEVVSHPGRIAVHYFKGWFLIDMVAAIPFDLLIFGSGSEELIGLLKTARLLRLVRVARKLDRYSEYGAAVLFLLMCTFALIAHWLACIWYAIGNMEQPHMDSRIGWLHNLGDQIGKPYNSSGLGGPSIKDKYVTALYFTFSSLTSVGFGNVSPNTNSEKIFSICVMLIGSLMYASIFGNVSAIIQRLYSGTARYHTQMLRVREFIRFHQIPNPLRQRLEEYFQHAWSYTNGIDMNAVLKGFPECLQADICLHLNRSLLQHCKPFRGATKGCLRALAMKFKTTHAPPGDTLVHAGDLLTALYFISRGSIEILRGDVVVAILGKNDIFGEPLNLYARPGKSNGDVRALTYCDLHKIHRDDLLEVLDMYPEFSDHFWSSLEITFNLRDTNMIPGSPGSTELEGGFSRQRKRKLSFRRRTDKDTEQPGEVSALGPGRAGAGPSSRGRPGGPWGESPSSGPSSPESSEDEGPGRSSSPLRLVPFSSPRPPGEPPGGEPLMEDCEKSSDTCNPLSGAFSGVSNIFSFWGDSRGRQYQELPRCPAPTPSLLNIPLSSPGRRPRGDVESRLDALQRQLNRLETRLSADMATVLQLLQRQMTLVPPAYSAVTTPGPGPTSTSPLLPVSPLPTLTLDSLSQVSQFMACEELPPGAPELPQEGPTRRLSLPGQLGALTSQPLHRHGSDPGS

In the case of `N=C(Nc1ccccc1)Nc1ccccc1` [1,3-diphenylguanidine], the “KV 1.3 IC50” value [1] is reported as “Inactive”.
With `Nc1ccc2cc3ccccc3cc2c1` [2-aminoanthracene] the “Confirmation Efficacy (inhibition of thallium influx as a % of positive control)” value [2] was 67 ± 19%, the “qHTS (two runs) Efficacy (inhibition of thallium influx as a % of positive control)” value ([3]; human) was 61 ± 3% and the “Inhibition of thallium influx in parental (wild type) cells” value [4] was “inhibitory effect”. The IC50 [5] was over 100 µM.
With `CCCCCCc1ccc(-c2ccc(C#N)cc2)cc1` [4-N-hexyl-4′-cyanobiphenyl, 4′-N-hexyl-4-biphenylcarbonitrile] the “Confirmation IC50 (thallium influx, hERG)” value [3] was “Inactive” and the IC50 [3] was 8.2 ± 2.6 µM.
In the case of `O=C([O-])c1c(Cl)c(Cl)c(Cl)c(Cl)c1-c1c2cc(Br)c(=O)c(Br)c-2oc2c(Br)c([O-])c(Br)cc12.[Na+].[Na+]` [D&C red dye 27], the IC50 [6] is reported as over 100 µM, the “Confirmation Efficacy (inhibition of thallium influx as a % of positive control)” value [3] is reported as 173 ± 41% and the “Inhibition of thallium influx in parental (wild type) cells” value [4] is reported as “inhibitory effect”.
With `C[N+](C)(C)Cc1ccccc1` [benzyltrimethylammonium chloride] the “IC50 in the thallium influx assay (QAC series follow-up)” value [2] was “inactive” and the “Patch clamp IC50” value [5, 11] was “inactive”.
In the case of `C[N+](C)(C)CCCCCCCCCC[N+](C)(C)C` [decamethonium dibromide], the “IC50 in the thallium influx assay (QAC series follow-up)” value [2] is reported as “inactive” and the “Patch clamp IC50” value [5, 11] is reported as “inactive”.
For `C[C@@H]1CC[C@@]2(OC1)O[C@H]1[C@@H](O)[C@H]3[C@@H]4CC[C@H]5C[C@@H](O[C@@H]6O[C@H](CO)[C@H](O[C@@H]7O[C@H](CO)[C@@H](O)[C@H](O[C@@H]8OC[C@@H](O)[C@H](O)[C@H]8O)[C@H]7O[C@@H]7O[C@H](CO)[C@H](O)[C@H](O[C@@H]8O[C@H](CO)[C@@H](O)[C@H](O)[C@H]8O)[C@H]7O)[C@H](O)[C@H]6O)[C@H](O)C[C@]5(C)[C@H]4CC[C@]3(C)[C@H]1[C@@H]2C` [digitonin, reference compound], the “Inhibitory effect on hERG channel activity in the patch clamp experiment” value ([5]; at 1 μM (the highest noncytotoxic concentration)) was “no inhibitory effect”.
For `CCCCCCCCCCCC[N+](C)(C)CCOc1ccccc1` [domiphen bromide], the IC50 at 30 min [7] was 65 µM, the “Maximum inhibition of cell viability” value [8, 12] was 33% and the selectivity ratio at 2 min [9] was 1.2. For the same compound, the IC50 [1] was 5.2 ± 0.6 µM, the “Selectivity Fold (hERG over KV1.3)” value [1] was “no selectivity” and the “KV 1.3 Efficacy (inhibition of thallium influx as a % of positive control)” value [1] was 102 ± 22%. For the same compound, the IC50 [5] was 1.5 µM.
With `Clc1ccc(COC(Cn2ccnc2)c2ccc(Cl)cc2Cl)cc1` (stereo not drawn) [econazole nitrate, reference compound] the IC50 [1] was 30 ± 2 µM and the “KV 1.3 Efficacy (inhibition of thallium influx as a % of positive control)” value [1] was 104 ± 10%.
In the case of `CN(C)c1ccc(C(=C2C=CC(=[N+](C)C)C=C2)c2ccccc2)cc1.CN(C)c1ccc(C(=C2C=CC(=[N+](C)C)C=C2)c2ccccc2)cc1.O=C(O)C(=O)O.O=C([O-])C(=O)O.O=C([O-])C(=O)O` [malachite green oxalate], the “Confirmation Efficacy (inhibition of thallium influx as a % of positive control)” value [2] is reported as 108 ± 7%, the “qHTS (two runs) Efficacy (inhibition of thallium influx as a % of positive control)” value [3] is reported as 97 ± 3% and the “Maximum inhibition of cell viability” value [8] is reported as 72%. The IC50 [8, 12] was 31 µM, the “Selectivity Fold (hERG over KV1.3)” value [1] was 6.5 fold and the “KV 1.3 IC50” value [1] was “either IC50 values >30 μM or were inactive”. For the same compound, the “KV 1.3 Efficacy (inhibition of thallium influx as a % of positive control)” value [1] was 89% and the IC50 [5, 13] was 1.9 µM.
With `Clc1ccc(C(c2ccccc2Cl)C(Cl)(Cl)Cl)cc1` (stereo not drawn) [o,p′-DDT, 1,1,1-trichloro-2-(2-chlorophenyl)-2-(4-chlorophenyl)ethane] the selectivity ratio [10] was 1.6, the “Confirmation Efficacy (inhibition of thallium influx as a % of positive control)” value [2] was 58 ± 8% and the “qHTS (two runs) Efficacy (inhibition of thallium influx as a % of positive control)” value ([3]; human) was 56 ± 2%. For the same compound, the IC50 [1] was 35 µM, the “Selectivity Fold (hERG over KV1.3)” value [1] was “no selectivity” and the “KV 1.3 IC50” value [1] was “either IC50 values >30 μM or were inactive”. For the same compound, the “KV 1.3 Efficacy (inhibition of thallium influx as a % of positive control)” value [1] was 61% and the IC50 [5] was 2.6 µM.
With `C=C[C@H]1C[N@@]2CC[C@H]1C[C@@H]2[C@@H](O)c1ccnc2ccc(OC)cc12` [quinidine, reference compound] the “KV 1.3 IC50” value [1] was “either IC50 values >30 μM or were inactive; also recorded: Inactive”.
In the case of `COC(=O)[C@H]1[C@H]2C[C@@H]3c4[nH]c5cc(OC)ccc5c4CCN3C[C@H]2C[C@@H](OC(=O)c2cc(OC)c(OC)c(OC)c2)[C@@H]1OC` [reserpine, reference compound], the IC50 ([2]; Confirmation IC50 (thallium influx, hERG)) is reported as 4.9 ± 1.7 µM, the IC50 ([2]; qHTS (two runs) IC50) is reported as 7.5 ± 3.5 µM and the selectivity ratio at 2 min [9] is reported as 11.8. For the same compound, the IC50 [1] was 58 ± 18 µM, the “KV 1.3 IC50” value [1] was “either IC50 values >30 μM or were inactive” and the “KV 1.3 Efficacy (inhibition of thallium influx as a % of positive control)” value [1] was 78 ± 7%. For the same compound, the IC50 [5] was 1.9 µM.
In the case of `CCCCCCCC[N+](CCCCCCCC)(CCCCCCCC)CCCCCCCC.[Br-]` [tetra-n-octylammonium bromide], the “Confirmation Efficacy (inhibition of thallium influx as a % of positive control)” value [2] is reported as 100 ± 3%, the “qHTS (two runs) Efficacy (inhibition of thallium influx as a % of positive control)” value [3] is reported as 102 ± 4% and the “Maximum inhibition of cell viability” value [8, 12] is reported as 50%. For the same compound, the IC50 [8, 12] was 34 µM, the “Selectivity Fold (hERG over KV1.3)” value [1] was 42 fold and the “KV 1.3 Efficacy (inhibition of thallium influx as a % of positive control)” value [1] was 72 ± 16%. For the same compound, the IC50 ([5]; read-out: IC50 in the patch clamp assay, as stated in abstract) was 0.08 µM and the IC50 [5, 13] was 0.082 µM.
With `COc1ccc(CCN(C)CCCC(C#N)(c2ccc(OC)c(OC)c2)C(C)C)cc1OC` (stereo not drawn) [verapamil, reference compound] the “KV 1.3 Efficacy (inhibition of thallium influx as a % of positive control)” value [1] was 88 ± 12%.
In the case of tricresyl phosphate, the “Confirmation Efficacy (inhibition of thallium influx as a % of positive control)” value [2] is reported as 68 ± 16%, the “qHTS (two runs) Efficacy (inhibition of thallium influx as a % of positive control)” value [3] is reported as 82 ± 11% and the “Selectivity Fold (hERG over KV1.3)” value [1] is reported as 2.7 fold. For the same compound, the “KV 1.3 Efficacy (inhibition of thallium influx as a % of positive control)” value [1] was 68 ± 17% and the IC50 [5, 13] was 8.8 µM.
For trixylenyl phosphate, the “Confirmation Efficacy (inhibition of thallium influx as a % of positive control)” value [2] was 43 ± 15%, the “qHTS (two runs) Efficacy (inhibition of thallium influx as a % of positive control)” value [3] was 67 ± 12% and the “Patch clamp IC50” value [5, 11] was “did not inhibit hERG channel activity”. For the same compound, the IC50 [5, 13] was over 100 µM.
